The nature of data set [1]: Physicochemical properties (density).
Data set [2] addresses T1, horse spleen apoferritin (Equus caballus, UniProt P02791).
T1 construct: soluble protein model horse spleen apoferritin; from tissue; host or cells: horse spleen
T1 sequence (P02791 2-175 limits assumed): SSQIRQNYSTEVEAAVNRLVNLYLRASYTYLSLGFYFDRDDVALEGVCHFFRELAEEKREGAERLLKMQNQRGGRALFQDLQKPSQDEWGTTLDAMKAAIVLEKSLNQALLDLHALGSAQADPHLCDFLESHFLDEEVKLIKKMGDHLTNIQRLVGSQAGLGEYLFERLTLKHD
Description: Isothermal titration calorimetry binding to apoferritin. As to conditions: one-site model, read-out: KD (95% CI), ITC. On the procedure:
Isothermal titration calorimetry isotherms for binding to soluble protein model horse spleen apoferritin were conducted as reported previously ([31]) and were resolved using a VP-isothermal titration calorimetry microcalorimeter (MicroCal, Inc., Northampton, MA). Origin 5.0 software was used to best-fit thermodynamic parameters to the heat profiles.

Data set [3] has as its system X. laevis tadpoles. Description: animal or person. Format: in vivo. As to conditions: for EC50: Xenopus laevis, read-out: EC50 (95% CI); for observable toxicity in tadpoles / pharmacological end point in tadpoles: in vivo. The procedure: (§1) Behavioral activity was initially determined in albino X. laevis tadpoles (stages 45–47) as described previously ([29], [33]). All animal care and experimental procedures involving X. laevis tadpoles were carried out according to a protocol approved by the IACUC of the University of Pennsylvania.

Another data set deals with T2, α1β2γ2L GABAA receptors (Homo sapiens, UniProt P14867+P47870).
T2 construct: expressed in transfected cells; host or cells: Xenopus laevis oocytes
T2 sequence (P14867 28-456): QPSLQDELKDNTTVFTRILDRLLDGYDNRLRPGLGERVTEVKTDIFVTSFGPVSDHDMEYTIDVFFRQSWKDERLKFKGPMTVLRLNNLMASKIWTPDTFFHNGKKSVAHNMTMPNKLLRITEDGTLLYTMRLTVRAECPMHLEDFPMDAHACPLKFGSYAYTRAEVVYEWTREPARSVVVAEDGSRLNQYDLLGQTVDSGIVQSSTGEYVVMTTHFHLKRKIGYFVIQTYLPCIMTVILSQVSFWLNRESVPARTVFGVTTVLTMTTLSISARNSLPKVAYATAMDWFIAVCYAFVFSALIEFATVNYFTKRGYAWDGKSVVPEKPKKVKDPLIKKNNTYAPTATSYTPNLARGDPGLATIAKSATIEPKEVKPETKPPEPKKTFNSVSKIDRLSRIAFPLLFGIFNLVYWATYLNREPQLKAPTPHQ
T2 sequence (P47870 25-512 limits assumed): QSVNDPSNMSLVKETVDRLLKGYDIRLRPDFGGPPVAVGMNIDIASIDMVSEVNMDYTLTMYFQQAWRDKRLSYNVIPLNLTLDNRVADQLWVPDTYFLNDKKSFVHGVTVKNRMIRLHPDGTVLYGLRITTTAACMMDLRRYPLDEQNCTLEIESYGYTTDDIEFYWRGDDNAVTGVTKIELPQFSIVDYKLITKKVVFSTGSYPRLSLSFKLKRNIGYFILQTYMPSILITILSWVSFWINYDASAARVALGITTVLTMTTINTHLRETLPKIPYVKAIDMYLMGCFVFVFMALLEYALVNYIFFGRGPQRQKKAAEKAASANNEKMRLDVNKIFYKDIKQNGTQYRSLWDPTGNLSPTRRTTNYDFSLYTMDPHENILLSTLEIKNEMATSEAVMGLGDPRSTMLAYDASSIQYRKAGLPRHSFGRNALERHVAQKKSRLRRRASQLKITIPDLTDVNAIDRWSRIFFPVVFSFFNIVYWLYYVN
T2 sequence (P18507 40-475 partner): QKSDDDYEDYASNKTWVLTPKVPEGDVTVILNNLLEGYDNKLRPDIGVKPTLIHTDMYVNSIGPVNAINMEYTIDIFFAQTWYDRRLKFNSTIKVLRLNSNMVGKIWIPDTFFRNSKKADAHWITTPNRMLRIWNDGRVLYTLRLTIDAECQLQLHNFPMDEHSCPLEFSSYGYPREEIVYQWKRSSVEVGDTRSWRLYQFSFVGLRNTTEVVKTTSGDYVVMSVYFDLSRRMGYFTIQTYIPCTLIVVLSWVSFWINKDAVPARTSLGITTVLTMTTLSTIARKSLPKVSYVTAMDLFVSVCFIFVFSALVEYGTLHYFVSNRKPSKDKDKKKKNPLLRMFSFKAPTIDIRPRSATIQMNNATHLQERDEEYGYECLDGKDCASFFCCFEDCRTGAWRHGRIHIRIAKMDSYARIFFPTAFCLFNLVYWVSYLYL
The data set can be described thus: cell-based. On the procedure: GABAA receptor expression in X. laevis oocytes was completed as described previously ([40]). cDNAs for GABAA receptor α1, β2, and γ2L subunits were generously provided by Dr. Robert Pearce (University of Wisconsin). All animal care and experimental procedures involving X. laevis frogs were carried out according to a protocol approved by the IACUC of Thomas Jefferson University. GABAA receptor currents expressed in X. laevis oocytes were recorded as reported previously ([40]). Data acquisition and initial analysis were performed using pClamp 9.2/10.3 (Molecular Devices, Sunnyvale, CA). Macroscopic currents were low-pass filtered at 1 kHz and digitized at 2 kHz. Data were fit to a sigmoidal dose-response curve with variable Hill slope.

Data set [4] has as its target T1, horse spleen apoferritin. Description: 1-AMA displacement fluorescence assay. The data set is classed as binding. On the procedure:
1-AMA fluorescence inhibition has been reported as a reliable measurement of anesthetic occupation of the horse spleen apoferritin anesthetic site ([64]). 1-AMA displacement studies were conducted as described previously ([29]). The fluorescence intensity versus concentration data were fitted to variable slope Hill models to obtain the IC50 and Hill slope. The KD value was calculated using the Cheng-Prusoff equation to correct for the presence of the 1-AMA competitors.

The conditions of data set [5]: buffer.
Data set [6] relates to X. laevis tadpoles. Description: In vivo photolabeling in tadpoles (recovery after UV irradiation). Also noted: species or system Xenopus laevis. The following applies: 12 μM for 30 min, then 10 min low intensity UV irradiation. The procedure:
Tadpoles were then exposed to 10 min of low intensity UV irradiation or were maintained as a 10-min non-UV irradiation control.
as §1

Data set [7] relates to alkylphenol-binding proteins within synaptosomes. The data set can be described thus: Fluorescent profiling: protection from AziPm-click (1) photolabeling of synaptosomes. Also on record: species or system mouse. The following applies: propofol 75–375 μM; ketamine 150–450 μM; triplicate. The procedure:
(§2) Synaptosomes were resuspended to 1 mg of protein/ml in HEPES buffer medium (in mM: 140 NaCl, 5 KCl, 5 NaHCO3, 1.2 NaH2PO4, 1 MgCl2, 10 glucose, and 10 HEPES (pH 7.4)). […] The samples were allowed to equilibrate for 5 min before being transferred to a parafilm-sealed 1-mm path length quartz cuvette. The sample was then irradiated for 20 min at a peak bandwidth of 350 nm (Rayonet RPR-3500 lamp) ∼6 cm from the light source. Non-irradiated samples were left in the dark at ambient temperature (22–25 °C) for 20 min. All remaining procedures were conducted with restricted light exposure.

The subject of another data set is GABAA receptor subunits. The data set can be described thus: Western blotting of streptavidin-captured GABAA receptor subunits with ligand protection. Format: binding, mouse. The following applies: AziPm-click (1) 10 μM, protecting ligand 100 μM, UV irradiation; n = 4. The procedure: as §2
To 750 μg of photolabeled or control synaptosome samples, 40 μl of 10% SDS and 2 μl of 5 mM DTT in water were added. Samples were then vortexed, heated for 10 min at 65 °C, and then briefly cooled. Final concentrations of 150 μM azide-biotin (Click Chemistry Tools), 2 mM tris(3-hydroxypropyltriazolylmethyl)amine (Sigma), 1 mM ascorbic acid (Sigma), and 1 mM CuSO4·5H2O (Sigma) were added to each sample and vortexed vigorously. The samples were left in the dark at ambient temperature (22–25 °C) for 1 h with mild agitation. Directly to each sample 4× volume chilled methanol, 1.5× chilled chloroform, and 3× chilled double distilled H2O were added. Samples were vortexed vigorously and centrifuged at 1,400 × g for 30 min at 4 °C. […]
On the technique in general: A western blot detects proteins with antibodies after separation by electrophoresis.

Like-named read-outs stand apart in the source and are kept apart here.

One may read the Kd as the equilibrium constant for the complex coming apart. By EC50 is commonly meant the concentration needed to bring the measured effect to its halfway point. Consider `C#CCOCc1ccc(C2(C(F)(F)F)N=N2)cc1O` [AziPm-click (1), 2-((prop-2-yn-1-yloxy)methyl)-5-(3-(trifluoromethyl)-3H-diazirin-3-yl)phenol], for which the Density in data set [1] was found to be 1.19 g/mL. Also, the Kd on horse spleen apoferritin [2] was determined as 22 µM. Further, in the data set on X. laevis tadpoles [3], the EC50 was 6.1 µM, the “observable toxicity in tadpoles” value is given as “no observable toxicity” and the “pharmacological end point in tadpoles” value is listed as “reversible hypnosis”. Further, the EC50 at α1β2γ2L GABAA receptors (read-out: EC50 for positive modulation) stood at 49 µM. On horse spleen apoferritin [4], the “Hill slope (mean ± S.E.), 1-AMA displacement” value is given as −0.97 ± 0.39. The Kd on horse spleen apoferritin [4] (fluorescence data derived from the Cheng-Prusoff equation, read-out: KD (95% CI), 1-AMA displacement) was found to be 4 µM. For the same compound, the “half-life (t½) of time-dependent photoreactivity” value in [5] was found to be 25 min. Also, the “immobility after drug washout” value in the data set on X. laevis tadpoles [6] is “prolonged immobility after drug washout”.

In [1], `CC(C)c1cccc(C(C)C)c1O` [propofol, 2,6-diisopropylphenol, reference compound] had a Density of 0.96 g/mL. Besides, the Kd at horse spleen apoferritin [2] stood at 9 µM. For the same compound, in data set [7], the “fluorescent labeling of synaptosomal proteins by AziPm-click (1) in presence of protecting ligand” value was “decreased”. Further, in the data set with X. laevis tadpoles [3], the EC50 was determined as 0.9 µM, the “observable toxicity in tadpoles” value is “no observable toxicity” and the “pharmacological end point in tadpoles” value is reported as “reversible hypnosis”. The “protection of GABAA receptor α and β subunits from AziPm-click (1) capture” value in the data set on GABAA receptor subunits is “significant decreases in capture efficiency”. This compound also gave an EC50 on α1β2γ2L GABAA receptors of 10 µM. Further, at horse spleen apoferritin [4], the “Hill slope (mean ± S.E.), 1-AMA displacement” value is on record as −1.1 ± 0.33 and the dissociation constant Kd came out at 2.4 µM.

For the origin of these results see paper PMC5034043 (The Journal of Biological Chemistry, 2016).
